# In publication PMC3664642, “A Peptide against Soluble Guanylyl Cyclase α1: A New Approach to Treating Prostate Cancer” (PLoS ONE, 2013):
# Where no end group is shown, it is not given here.
# What was measured:
# sGCα1 [1] = molecular target: T1, sGCα1 (Homo sapiens, UniProt Q02108); experiment: Biotin pulldown and competition from LNCaP extract; assay type: binding; conditions: competition, 150 µg unlabeled peptide vs 5 µg Peptide A-8R-Biotin; Fig. 2B
# T1 sequence (Q02108 1-690): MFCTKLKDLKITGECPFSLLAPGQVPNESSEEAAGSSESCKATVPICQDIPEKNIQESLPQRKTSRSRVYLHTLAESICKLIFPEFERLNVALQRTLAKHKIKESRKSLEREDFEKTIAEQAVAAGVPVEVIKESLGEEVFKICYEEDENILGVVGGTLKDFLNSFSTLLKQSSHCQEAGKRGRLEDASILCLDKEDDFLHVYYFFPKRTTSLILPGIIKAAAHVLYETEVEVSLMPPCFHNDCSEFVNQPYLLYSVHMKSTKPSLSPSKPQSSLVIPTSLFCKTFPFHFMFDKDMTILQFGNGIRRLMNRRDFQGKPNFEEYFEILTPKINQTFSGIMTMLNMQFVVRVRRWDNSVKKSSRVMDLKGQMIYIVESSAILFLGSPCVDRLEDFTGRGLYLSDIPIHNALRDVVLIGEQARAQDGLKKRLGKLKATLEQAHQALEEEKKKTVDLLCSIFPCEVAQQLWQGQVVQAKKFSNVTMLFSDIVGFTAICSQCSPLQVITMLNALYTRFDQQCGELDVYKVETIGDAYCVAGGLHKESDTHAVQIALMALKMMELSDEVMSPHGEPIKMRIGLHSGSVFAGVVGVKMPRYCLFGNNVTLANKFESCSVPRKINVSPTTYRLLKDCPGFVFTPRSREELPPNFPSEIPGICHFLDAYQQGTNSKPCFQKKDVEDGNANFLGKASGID
# Procedure: Immunoprecipitation (IP) in LNCaP cells was performed as described previously. Whole-cell extracts from LNCaP cells were subjected to IP using Protein A/G plus Agarose (Santa Cruz). IP antibodies were against sGCα1 (Cayman Chemical), sGCβ1 (Cayman Chemical), or rabbit IgG (Santa Cruz) as control. For Biotin pulldown, 5 µg Biotin-labeled Peptide A was incubated with NeutrAvidin Agarose Resin (Thermo Scientific) for 3 hours at 4°C, after which whole-cell extract from LNCaP cells was added and incubated overnight at 4°C. Resin was washed and eluted with SDS Sample buffer, followed by SDS-PAGE gel electrophoresis.
# Figure 2 Peptide A-8R interacts with sGCα1 in prostate cancer cells. (A) LNCaP cells were treated with 25 µM Biotin-labeled Peptide A-8R for 2 hrs and subjected to immunocytochemistry using anti-sGCα1 or anti-Biotin antibody to measure subcellular co-localization of endogenous sGCα1 and Peptide A-8R. DAPI was used to stain nuclei. (B) LNCaP cytosolic extracts were incubated with Peptide A-8R-Biotin and subjected to purification using streptavidin-agarose. This pull-down experiment was repeated with competing excess amount of unlabeled Peptide C-8R or Peptide A-8R. In both cases Western blotting was used to measure the co-purification of sGCα1. […] Co-purified Peptide A-8R-FITC was quantified by measuring fluorescence signal emission. […] Cell number was measured after 0–48 hrs of incubation. […]
# [2] = tested on: Caspase 3/7 activity in LNCaP cells; experiment: Caspase 3/7 assay, LNCaP cells; assay type: cell-based; conditions: Fig. 5A; for increase in Caspase 3/7 activity: 10 µM, averages of three independent experiments, relative to first condition
# Procedure: For proliferation, cells were grown in medium containing 2% FBS extracted with dextran-coated charcoal (DCC). 48 hours later, ethanol or 1 nM R1881 was added to the cells followed by peptide treatment. The MTT assay (Sigma) was used as before to determine cell number. For apoptosis, 5000 cells were seeded in 96-well plates and treated with Vehicle (DMSO), Peptide A-8R (25 µM), Etoposide (50 µM) (Sigma) at different time points. The Caspase (3/7) activity was measured using Apo-ONE Homogeneous Caspase-3/7 assay kit (Promega). PARP cleavage was also used to measure apoptosis, and is described below.
# Figure 5 Peptide A-8R induces apoptosis of prostate cancer cells. (A) LNCaP, (B) PC-3, or (C) Cos cells were treated with Vehicle, Peptide A-8R (10 µM), or Etoposide (20 µM) for 0–24 hrs and subjected to a Caspase assay to measure apoptosis. Bar graphs represent averages of three independent experiments plus standard deviations. All activities are relative to the first condition, and this activity was set to 1. Asterisks indicate statistical significance (P<0.005). (D) LNCaP cells were treated with Vehicle, Peptide C-8R, Peptide A-8R, or Etoposide (each drug at 50 µM) for 8 hrs and monitored for apoptosis by measuring PARP cleavage using Western blotting. Note that β-actin was used to control for protein loading.
# Supplementary file pone.0064189.s005.tif: Figure S5 ROS generation is not induced by Peptide A-8R in PC-3 cells and Peptide C-8R in LNCaP cells. (A) PC-3 cells were treated with Vehicle or different concentrations of Peptide A-8R or Peptide C-8R, as shown, or (B) LNCaP cells were treated with Vehicle or different concentrations of Peptide A-8R or Peptide C-8R, or H2O2 and monitored for ROS generation after 0–30 (A) or 30 (B) min. (C) LNCaP cells were treated with Vehicle, Peptide C-8R (10 µM), Peptide A-8R (10 µM), or Etoposide (100 µM) for 0–8 hrs and subjected to a Caspase assay to measure apoptosis. Bar graphs represent averages of three independent experiments plus standard deviations. (C) All activities are relative to the first condition, and this activity was set to either 1. Asterisks indicate statistical significance (P<0.006) of all values compared to Vehicle (B) or to 0 hour (C). (TIF) Click here for additional data file.
# sGCα1 [3] = molecular target: T1, sGCα1; experiment: Immunocytochemistry co-localization in LNCaP cells; assay type: cell-based; conditions: 25 µM Biotin-labeled Peptide A-8R, 2 hrs, Fig. 2A
# Procedure: Immunocytochemistry was used to study the subcellular localization of sGCα1 and Biotin-labeled Peptide-8R in LNCaP cells. FITC-labeled anti-sGCα1 antibody (1∶100 dilution; Santa Cruz Biotechnology), anti-Biotin antibody (1∶200; Santa Cruz Biotechnology) were used for immunocytochemisty as described.
# Figure 2 Peptide A-8R interacts with sGCα1 in prostate cancer cells. (A) LNCaP cells were treated with 25 µM Biotin-labeled Peptide A-8R for 2 hrs and subjected to immunocytochemistry using anti-sGCα1 or anti-Biotin antibody to measure subcellular co-localization of endogenous sGCα1 and Peptide A-8R. DAPI was used to stain nuclei. (B) LNCaP cytosolic extracts were incubated with Peptide A-8R-Biotin and subjected to purification using streptavidin-agarose. This pull-down experiment was repeated with competing excess amount of unlabeled Peptide C-8R or Peptide A-8R. In both cases Western blotting was used to measure the co-purification of sGCα1. (C) LNCaP cell extract was incubated with different concentrations of Peptide A-8R-FITC and endogenous sGCα1 was immunoprecipitated. Co-purified Peptide A-8R-FITC was quantified by measuring fluorescence signal emission. Nonlinear regression analysis was used to determine an affinity for Peptide A-8R binding to sGCα1. […] Cell number was measured after 0–48 hrs of incubation. […]
substance,measurement,setting,value
Ac-TFCKAFPFHIIRRRRRRRR [Peptide A-8R],inhibition of Peptide A-8R-Biotin interaction with sGCα1,sGCα1 [1],significantly inhibited Peptide A-8R-Biotin interaction with sGCα1
same,increase in Caspase 3/7 activity,[2]; 1 hour,2 fold
same,increase in Caspase 3/7 activity,[2]; 8 hrs,~4 fold
same,speed of Caspase 3/7 induction relative to Etoposide,[2],much faster than the well-studied apoptosis-inducing drug Etoposide
same,Caspase 3/7 activity,"[2]; Peptide 10 µM, Etoposide 20 µM, 24 hrs",diminished to Vehicle levels
same,co-localization with sGCα1,sGCα1 [3],colocalizes with sGCα1 only in the cytoplasm of LNCaP cells
